From patent US7300763B2, “Method of testing myelotoxicity with the use of flow cytometer” (Teijin Limited, priority 2000, dated 2007)

Key:
rat bone marrow cells [1] = test: Observation of smears of bone marrow (May-Grünwald and Giemsa staining) in rats administered with 5-FU; format: in vivo; parameters: key to Number of Cells, Erythroblasts / Number of Cells, Immature Myelocytes: —: Undetected; conditions: 50 mg/kg/day intravenously
Procedure: (§1) (2) 5-Fluorouracil (hereinafter abbreviated to 5-FU) as a chemotherapeutic agent in a dose of 50 mg/kg/day ([…], 10 mL/kg) was intravenously administered to the rats, and a physiological saline solution was used as the control substance.
(§2) The days of the experiment were indicated by the day of starting the administration as day 0. Groups for collecting the bone marrow on the day 0 and day 5 of the experiment were respectively set as groups administered with the control substance. Groups for collecting the bone marrow from day 1 to day 5 of the experiment were respectively set as groups administered with the 5-FU. The number of animals in each group was 3.
(5) A part of bone marrow cells were suspended in an adequate amount of fetal bovine serum. An adequate amount of the resulting suspension was then dropped onto a slide glass, and a cover glass was obliquely applied to the droplet of the bovine fetal serum containing the bone marrow cells. The slide glass was directly moved to prepare smears (the wedge method). Each smear was subjected to May-Grünwald and Giemsa staining to carry out microscopic observation, and the ratio of the cells was calculated for each lineage and differentiation stage. After calculating the ratio, the resulting ratio was multiplied by the separately obtained number of bone marrow cells to determine the absolute number by observing the smear of each cell.
(7) Observation of smears was carried out for 500 bone marrow cells per individual (one smear).

rat bone marrow cells [2] = test: Myelotoxicity by flow cytometer analysis of cell surface antigen-expressing bone marrow cells after administration of 5-FU; format: in vivo; conditions: 50 mg/kg/day intravenously; for Number of CD45 Peak 1-expressing cells / Number of CD45 Peak 2-expressing cells / Number of CD45R-expressing cells / Number of CD71-expressing cells / Number of CD90-expressing cells: n = 3
Procedure: (1) Six-week-old male CD (SD) IGS rats purchased from Charles River Japan were used at the age of 8 weeks. During the housing period, the rats were fed with a feed for animals (Oriental Yeast Co., Ltd., CRF-1) and drinking water (well water containing 0.4% of a hypochlorite added) ad libitum. The animals were housed in metal cages (one animal per cage) and kept under conditions of a temperature of 23±1° C. and a humidity of 55±15%.
(2) The bone marrow was collected from left and right femurs. The femurs were taken out under anaethesia with pentobarbital, and both ends of the femurs were cut. The bone marrow was then flushed out with 1 mL of fetal bovine serum using a syringe with a 25G injection needle. Bone pieces or the like were removed by using a Pasteur pipette, and cells were then collected by centrifugation (3,000 rpm for 5 minutes).
(3) To 20 μL of the cells collected in (2), was added 5 mL of a phosphate-buffer-solution (PBS). Thereby, a cell suspension was obtained.
(4) To 200 μL of the cell suspension in (3), was added 2 μg of a specific antibody to the cell surface antigen. Incubation was carried out at room temperature for 45 minutes. Mouse IgG2a anti-rat CD2, mouse IgG1 anti-rat CD8, mouse IgA anti-rat CD11b, mouse IgG1 anti-rat CD45, mouse IgG2b anti-rat CD45R, mouse IgG2a anti-rat CD71 and mouse IgG2a anti-rat CD90 were used as the antibody. Mouse IgG1, mouse IgG2a, mouse IgG2b and mouse IgA were used as the isotype control antibody. All the antibodies labeled with fluorescein (FITC) (Pharmingen.) were used as the antibody.
(5) After incubation, 1 mL of Optilyse C (Beckman Coulter.) was added, and treatment was carried out for 10 minutes to hemolyze erythrocytes. After the hemolytic treatment, 1 mL of PBS was added, and incubation was carried out at room temperature for 10 minutes.
(6) Procedures of adding 1 mL of PBS to a cell precipitation obtained by centrifugation (3,000 rpm for 5 minutes) after incubation and thereby washing the cells were repeated twice.
(7) After washing, 2 mL of PBS was added to the cell precipitation to provide a cell suspension. Analysis was carried out with the use of a flow cytometer (EPICS XL-MCL, Beckman Coulter.) The analysis was conducted by following procedures described below. […] The fluorescence detector sensitivity of the flow cytometer was adjusted with the cells treated with the isotype antibody.
as §1, §2
(4) Bone marrow collection, antibody treatment and analysis with the flow cytometer were carried out according to Example 1. A flow count (Beckman Coulter.) was added to the cell suspension during the flow cytometer analysis, and a calibration region was set on the cytogram of EPIS XL-MCL to make measurement. The absolute number of the respective cell surface antigen-expressing cells was calculated. Mouse IgGI anti-rat CD45, mouse IgG2b anti-rat CD45R, mouse IgG2a anti-rat CD71 and mouse IgG2a anti-rat CD90 were used as the antibody, and mouse IgG1, mouse IgG2a and mouse IgG2b were used as the isotype control antibody.
(6) The expression of cell surface antigens was measured for 15,000 bone marrow cells per individual with the use of the flow cytometer.

O=c1[nH]cc(F)c(=O)[nH]1 [5-FU, 5-Fluorouracil]
Number of Cells, Erythroblasts (rat bone marrow cells [1]; Day 1, Mean ± SD, n = 3): 0.18 ± 0.07 ×10^6/μL | Number of Cells, Immature Myelocytes (rat bone marrow cells [1]; Day 1, Mean ± SD, n = 3): 0.20 ± 0.10 ×10^6/μL | Number of Cells, Lymphocytes (rat bone marrow cells [1]; Day 1, Mean ± SD, n = 3): 2.01 ± 0.86 ×10^6/μL | Number of Cells, Mature Myelocytes (rat bone marrow cells [1]; Day 1, Mean ± SD, n = 3): 0.49 ± 0.22 ×10^6/μL | Number of Cells, Erythroblasts (rat bone marrow cells [1]; Day 2, Mean ± SD, n = 3): 0.02 ± 0.03 ×10^6/μL | Number of Cells, Immature Myelocytes (rat bone marrow cells [1]; Day 2, Mean ± SD, n = 3): 0.09 ± 0.04 ×10^6/μL | Number of Cells, Lymphocytes (rat bone marrow cells [1]; Day 2, Mean ± SD, n = 3): 1.46 ± 0.21 ×10^6/μL | Number of Cells, Mature Myelocytes (rat bone marrow cells [1]; Day 2, Mean ± SD, n = 3): 0.95 ± 0.32 ×10^6/μL | Number of Cells, Erythroblasts (rat bone marrow cells [1]; Day 3, Mean ± SD, n = 3): 0.003 ± 0.001 ×10^6/μL | Number of Cells, Immature Myelocytes (rat bone marrow cells [1]; Day 3, Mean ± SD, n = 3): 0.003 ± 0.001 ×10^6/μL | Number of Cells, Lymphocytes (rat bone marrow cells [1]; Day 3, Mean ± SD, n = 3): 0.62 ± 0.13 ×10^6/μL | Number of Cells, Mature Myelocytes (rat bone marrow cells [1]; Day 3, Mean ± SD, n = 3): 0.39 ± 0.03 ×10^6/μL | Number of Cells, Erythroblasts (rat bone marrow cells [1]; Day 4, Mean ± SD, n = 3): 0.001 ± 0.001 ×10^6/μL | Number of Cells, Lymphocytes (rat bone marrow cells [1]; Day 4, Mean ± SD, n = 3): 0.56 ± 0.20 ×10^6/μL | Number of Cells, Mature Myelocytes (rat bone marrow cells [1]; Day 4, Mean ± SD, n = 3): 0.12 ± 0.02 ×10^6/μL | Number of Cells, Immature Myelocytes (rat bone marrow cells [1]; Day 4, n = 3): — | Number of Cells, Lymphocytes (rat bone marrow cells [1]; Day 5, Mean ± SD, n = 3): 0.51 ± 0.08 ×10^6/μL | Number of Cells, Mature Myelocytes (rat bone marrow cells [1]; Day 5, Mean ± SD, n = 3): 0.03 ± 0.01 ×10^6/μL | Number of Cells, Erythroblasts (rat bone marrow cells [1]; Day 5, n = 3): — | Number of Cells, Immature Myelocytes (rat bone marrow cells [1]; Day 5, n = 3): — | Change of erythroblasts, in words (rat bone marrow cells [1]; day 1 to day 5): decreased to such an extent of the scarcely observed cells on day 3 of the experiment and thereafter | Change of immature myelocytes, in words (rat bone marrow cells [1]; day 1 to day 5): decreased to such an extent of the scarcely observed cells on day 3 of the experiment and thereafter | Change of lymphocytes, in words (rat bone marrow cells [1]; day 1 to day 5): decreased on day 3 of the experiment and thereafter | Change of number of mature myelocytes, in words (rat bone marrow cells [1]; day 1 to day 5): temporarily increased from day 1 to day 3 of the experiment and then decreased on day 4 of the experiment and thereafter | Number of CD45 Peak 1-expressing cells (rat bone marrow cells [2]; Day 1, Mean ± SD): 1.65 ± 0.68 ×10^6/μL | Number of CD45 Peak 2-expressing cells (rat bone marrow cells [2]; Day 1, Mean ± SD): 0.76 ± 0.32 ×10^6/μL | Number of CD45R-expressing cells (rat bone marrow cells [2]; Day 1, Mean ± SD): 1.54 ± 0.69 ×10^6/μL | Number of CD71-expressing cells (rat bone marrow cells [2]; Day 1, Mean ± SD): 0.46 ± 0.17 ×10^6/μL | Number of CD90-expressing cells (rat bone marrow cells [2]; Day 1, Mean ± SD): 1.76 ± 0.79 ×10^6/μL | Number of CD45 Peak 1-expressing cells (rat bone marrow cells [2]; Day 2, Mean ± SD): 1.20 ± 0.32 ×10^6/μL | Number of CD45 Peak 2-expressing cells (rat bone marrow cells [2]; Day 2, Mean ± SD): 0.82 ± 0.20 ×10^6/μL | Number of CD45R-expressing cells (rat bone marrow cells [2]; Day 2, Mean ± SD): 1.46 ± 0.27 ×10^6/μL | Number of CD71-expressing cells (rat bone marrow cells [2]; Day 2, Mean ± SD): 0.30 ± 0.15 ×10^6/μL | Number of CD90-expressing cells (rat bone marrow cells [2]; Day 2, Mean ± SD): 1.58 ± 0.18 ×10^6/μL | Number of CD45 Peak 1-expressing cells (rat bone marrow cells [2]; Day 3, Mean ± SD): 0.34 ± 0.13 ×10^6/μL | Number of CD45 Peak 2-expressing cells (rat bone marrow cells [2]; Day 3, Mean ± SD): 0.75 ± 0.25 ×10^6/μL | Number of CD45R-expressing cells (rat bone marrow cells [2]; Day 3, Mean ± SD): 0.59 ± 0.11 ×10^6/μL | Number of CD71-expressing cells (rat bone marrow cells [2]; Day 3, Mean ± SD): 0.09 ± 0.05 ×10^6/μL | Number of CD90-expressing cells (rat bone marrow cells [2]; Day 3, Mean ± SD): 0.49 ± 0.10 ×10^6/μL | Number of CD45 Peak 1-expressing cells (rat bone marrow cells [2]; Day 4, Mean ± SD): 0.05 ± 0.02 ×10^6/μL | Number of CD45 Peak 2-expressing cells (rat bone marrow cells [2]; Day 4, Mean ± SD): 0.64 ± 0.24 ×10^6/μL | Number of CD45R-expressing cells (rat bone marrow cells [2]; Day 4, Mean ± SD): 0.41 ± 0.12 ×10^6/μL | Number of CD71-expressing cells (rat bone marrow cells [2]; Day 4, Mean ± SD): 0.02 ± 0.02 ×10^6/μL | Number of CD90-expressing cells (rat bone marrow cells [2]; Day 4, Mean ± SD): 0.16 ± 0.06 ×10^6/μL | Number of CD45 Peak 1-expressing cells (rat bone marrow cells [2]; Day 5, Mean ± SD): 0.03 ± 0.02 ×10^6/μL | Number of CD45 Peak 2-expressing cells (rat bone marrow cells [2]; Day 5, Mean ± SD): 0.51 ± 0.06 ×10^6/μL | Number of CD45R-expressing cells (rat bone marrow cells [2]; Day 5, Mean ± SD): 0.32 ± 0.08 ×10^6/μL | Number of CD71-expressing cells (rat bone marrow cells [2]; Day 5, Mean ± SD): 0.02 ± 0.01 ×10^6/μL | Number of CD90-expressing cells (rat bone marrow cells [2]; Day 5, Mean ± SD): 0.09 ± 0.02 ×10^6/μL | Change of number of CD45 (Peak 1)-expressing cells, in words (rat bone marrow cells [2]; day 1 to day 5): began decreasing in a period between day 1 and day 2 of the experiment and was decreased to such an extent of the scarcely observed expressing cells on day 4 of the experiment | Change of number of CD45 (Peak 2)-expressing cells, in words (rat bone marrow cells [2]; day 1 to day 5): A decrease was not observed | Change of number of CD45R-expressing cells, in words (rat bone marrow cells [2]; day 1 to day 5): the decrease continued on day 3 of the experiment and thereafter | Change of number of CD71-expressing cells, in words (rat bone marrow cells [2]; day 1 to day 5): decreased to such an extent of the scarcely observed expressing cells on day 3 of the experiment and thereafter | Change of number of CD90-expressing cells, in words (rat bone marrow cells [2]; day 1 to day 5): markedly decreased on day 3 of the experiment and thereafter
